# Laboratory results published in patent publication US6492531B1, “Method of treating cognitive disorders” (Warner-Lambert Company, priority 1992, dated 2002).
# How the values were obtained:
# mice = experiment: mouse light/dark box habituation test; assay type: in vivo; settings: 0.25 mg/kg
# Procedure: (§1) A test carried out using the mouse light/dark box and the rat T-maze reinforced alternation task.
# On repeated exposure to the light/dark box mice habituate by moving more rapidly from the light to the dark side. The habituation occurs over a 4 to 6 day period, with a reduction in latency of movement from about 14 sec to 2 to 4 sec by the 4th day of the test.
# The compounds was administered at a dose of 0.00001 mg/kg SC once daily.
# The days (1-6) are along the X axis and the time in seconds is along the Y axis (latency white to black) and Day 6 scopolamine was 0.25.
# ∘ p <0.001 indicates improved habituation, comparison is with 1 day.
# * p <0.05 to p <0.001 is improved performance, compared to control.
# + p <0.001 is scopolamine impairment.
# Δ p <0.001 is inhibition of scopolamine impairment.
# rat = rat T-maze reinforced alternation task; assay type: in vivo; settings: twice daily 0.25 mg/kg
# Procedure: as §1
# The X axis is the day and the Y axis is the percent correct responses.
# The number of mice tested was six.
# ⬭ - - - ⬭ is the control vehicle.
# ⬬ - - - ⬬ is scopolamine at 0.25 mg/kg IP BID.
smiles,measurement,setting,value
CN1[C@@H]2C[C@@H](OC(=O)[C@H](CO)c3ccccc3)C[C@H]1[C@@H]1O[C@@H]12 [scopolamine],effect of scopolamine on habituation performance,mice,impairment of performance
same,effect of scopolamine on task performance,rat,deficit
